How the values were obtained:
KRas^WT = biological target: T1, KRas^WT (Homo sapiens, UniProt P01116); assay: KRas binding assay (TR-FRET tracer displacement), KRas WT; conditions: TR-FRET tracer displacement, KRas WT
T1 construct: Biotinylated KRas (corresponding to amino acids 1-169, produced at Accelegan Inc.); biotin (biotinylated); purchased Accelegan Inc

KRas^G12C = biological target: T2, KRas^G12C (Homo sapiens, UniProt P01116, G12C); assay: KRas binding assay (TR-FRET tracer displacement), KRas G12C; conditions: TR-FRET tracer displacement, KRas G12C
T2 construct: Biotinylated KRas (corresponding to amino acids 1-169, produced at Accelegan Inc.); biotin (biotinylated); purchased Accelegan Inc

[1] = tested on: KRas-mediated phosphorylation of ERK in AsPC-1 cells; assay: Inhibition of KRas-mediated phosphorylation of ERK (Cisbio HTRF pERK), AsPC-1 cells; format: cell-based; conditions: Homo sapiens, ASPC1, AsPC-1 cells; HTRF pERK
Procedure, shortened: (§1)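 Compound treatment lasts 3 hrs on 6,000 seeded cells, testing 10 doses from a 10 uM top concentration in 3-fold decrements at 0.8% final DMSO. Trametinib at 0.2 uM defines the Min signal. Detection is HTRF on cold-lysed cell extracts.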

[2] = tested on: KRas-mediated phosphorylation of ERK in H358 cells; assay: Inhibition of KRas-mediated phosphorylation of ERK (Cisbio HTRF pERK), H358 cells; format: cell-based; conditions: Homo sapiens; for IC50: NCI-H358, HTRF pERK
Procedure, shortened: as §1

KRas^G12V = biological target: T3, KRas^G12V (Homo sapiens, UniProt P01116, G12V); assay: KRas binding assay (TR-FRET tracer displacement), KRas G12V
T3 construct: Biotinylated KRas (corresponding to amino acids 1-169, produced at Accelegan Inc.); biotin (biotinylated); purchased Accelegan Inc

KRas^G12D = biological target: T4, KRas^G12D (Homo sapiens, UniProt P01116, G12D); assay: KRas binding assay (TR-FRET tracer displacement), KRas G12D
T4 construct: Biotinylated KRas (corresponding to amino acids 1-169, produced at Accelegan Inc.); biotin (biotinylated); purchased Accelegan Inc

KRas^G12S = biological target: T5, KRas^G12S (Homo sapiens, UniProt P01116, G12S); assay: KRas binding assay (TR-FRET tracer displacement), KRas G12S; conditions: TR-FRET tracer displacement, KRas G12S
T5 construct: Biotinylated KRas (corresponding to amino acids 1-169, produced at Accelegan Inc.); biotin (biotinylated); purchased Accelegan Inc

[3] = tested on: KRas-mediated phosphorylation of ERK in H727 cells; assay: Inhibition of KRas-mediated phosphorylation of ERK (Cisbio HTRF pERK), H727 cells; format: cell-based; conditions: Homo sapiens, NCI-H727, H727 cells; HTRF pERK
Procedure, shortened: as §1

[4] = tested on: KRas-mediated phosphorylation of ERK in A549 cells; assay: Inhibition of KRas-mediated phosphorylation of ERK (Cisbio HTRF pERK), A549 cells; format: cell-based; conditions: Homo sapiens; for IC50: HTRF pERK
Procedure, shortened: (§2)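 Following a 3-hr exposure of cells to serially diluted compound (from 10 uM, 3-fold, 10 doses), cold lysis for 40 mins preceded a 2-hr room-temperature HTRF immunoassay for phosphorylated ERK.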

[5] = tested on: KRas-mediated phosphorylation of ERK in MKN1 cells; assay: Inhibition of KRas-mediated phosphorylation of ERK (Cisbio HTRF pERK), MKN1 cells; format: cell-based; conditions: Homo sapiens, MKN-1
Procedure, shortened: (§3)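 Phospho-ERK is quantified by HTRF with the Advanced pERK kit. Cells go in at 6,000/well in RPMI plus 10% FBS overnight at 37° C. under 5% CO2, with a 4-hour covered room-temperature incubation ahead of the read.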

[6] = tested on: KRas-mediated phosphorylation of ERK in PSN1 cells; assay: Inhibition of KRas-mediated phosphorylation of ERK (Cisbio HTRF pERK), PSN1 cells; format: cell-based; conditions: Homo sapiens
Procedure, shortened: as §3

[7] = tested on: KRas-mediated phosphorylation of ERK in HCT116 cells; assay: Inhibition of KRas-mediated phosphorylation of ERK (Cisbio HTRF pERK), HCT116 cells; format: cell-based; conditions: Homo sapiens, HCT-116, HTRF pERK
Procedure, shortened: as §2

KRas^G12R = biological target: T6, KRas^G12R (Homo sapiens, UniProt P01116, G12R); assay: KRas binding assay (TR-FRET tracer displacement), KRas G12R
T6 construct: Biotinylated KRas (corresponding to amino acids 1-169, produced at Accelegan Inc.); biotin (biotinylated); purchased Accelegan Inc

[8] = tested on: KRas-mediated phosphorylation of ERK in H460 cells; assay: Inhibition of KRas-mediated phosphorylation of ERK (Cisbio HTRF pERK), H460 cells; format: cell-based; conditions: Homo sapiens, NCI-H460, HTRF pERK
Procedure, shortened: as §1

T3 sequence (P01116 1-169 isoform P01116-2 G12V): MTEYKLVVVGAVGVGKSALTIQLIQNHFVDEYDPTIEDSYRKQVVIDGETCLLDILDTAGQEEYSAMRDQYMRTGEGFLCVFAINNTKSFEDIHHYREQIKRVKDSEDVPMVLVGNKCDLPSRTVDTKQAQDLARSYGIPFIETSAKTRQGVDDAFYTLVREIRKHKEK
T6 sequence (P01116 1-169 isoform P01116-2 G12R): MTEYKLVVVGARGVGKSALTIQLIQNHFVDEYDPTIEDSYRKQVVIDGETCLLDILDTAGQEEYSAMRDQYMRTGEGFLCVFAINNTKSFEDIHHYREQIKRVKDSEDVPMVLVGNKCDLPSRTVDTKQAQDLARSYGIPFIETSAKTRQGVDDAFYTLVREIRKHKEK
T1 sequence (P01116 1-169 isoform P01116-2): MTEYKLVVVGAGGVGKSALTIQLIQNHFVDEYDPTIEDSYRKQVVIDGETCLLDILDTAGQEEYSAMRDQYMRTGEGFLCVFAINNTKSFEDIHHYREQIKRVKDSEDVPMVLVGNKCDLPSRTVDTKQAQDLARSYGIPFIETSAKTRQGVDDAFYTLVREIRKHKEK
T4 sequence (P01116 1-169 isoform P01116-2 G12D): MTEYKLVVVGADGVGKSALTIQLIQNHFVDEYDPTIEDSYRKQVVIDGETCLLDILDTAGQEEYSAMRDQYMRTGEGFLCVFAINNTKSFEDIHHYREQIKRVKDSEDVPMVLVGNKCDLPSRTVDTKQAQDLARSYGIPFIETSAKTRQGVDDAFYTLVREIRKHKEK
T2 sequence (P01116 1-169 isoform P01116-2 G12C): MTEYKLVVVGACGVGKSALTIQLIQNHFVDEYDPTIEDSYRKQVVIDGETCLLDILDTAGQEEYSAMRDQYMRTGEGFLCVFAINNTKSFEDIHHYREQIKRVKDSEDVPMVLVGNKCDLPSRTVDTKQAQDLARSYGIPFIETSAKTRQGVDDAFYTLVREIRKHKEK
T5 sequence (P01116 1-169 isoform P01116-2 G12S): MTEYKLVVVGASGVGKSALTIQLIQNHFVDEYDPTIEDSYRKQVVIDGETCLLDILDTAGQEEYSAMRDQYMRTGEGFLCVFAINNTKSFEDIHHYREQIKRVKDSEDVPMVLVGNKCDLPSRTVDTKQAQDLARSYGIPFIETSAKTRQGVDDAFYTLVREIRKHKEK

Structure (SMILES): CCc1c(F)ccc2cc(O)cc(-c3ncc4c(N5C[C@@H]6C[C@H](C5)[C@H](O)C6)nc(OCC56CCCN5C/C(=C/F)C6)nc4c3F)c12 (stereo partly drawn) [Example 930, (1R,5R,6R)-3-(7-(8-ethyl-7-fluoro-3-hydroxynaphthalen-1-yl)-8-fluoro-2-(((E)-2-(fluoromethylene)tetrahydro-1H-pyrrolizin-7a(5H)-yl)methoxy)pyrido[4,3-d]pyrimidin-4-yl)-3-azabicyclo[3.2.1]octan-6-ol]
- IC50 (KRas^WT): < 2 nM
- IC50 (KRas^G12C): < 2 nM
- IC50 [1]: 13 nM
- IC50 [2]: 1 nM
- IC50 (KRas^G12V): < 2 nM
- IC50 (KRas^G12D): < 2 nM
- IC50 (KRas^G12S): < 2 nM
- IC50 [3]: 4 nM
- IC50 [4]: 3 nM

Structure (SMILES): C=C1CN2CCCC2(COc2nc(N3CCCC4(CC(O)C4)C3)c3cnc(-c4cc(O)cc5ccc(F)c(CC)c45)c(F)c3n2)C1 (stereo not shown) [Example 934, 6-(7-(8-ethyl-7-fluoro-3-hydroxynaphthalen-1-yl)-8-fluoro-2-((2-methylenetetrahydro-1H-pyrrolizin-7a(5H)-yl)methoxy)pyrido[4,3-d]pyrimidin-4-yl)-6-azaspiro[3.5]nonan-2-ol]
- IC50 (KRas^WT): < 2 nM
- IC50 [5]: 0.2 nM
- IC50 (KRas^G12C): < 2 nM
- IC50 [1]: 11 nM
- IC50 [2]: 1 nM
- IC50 (KRas^G12V): < 2 nM
- IC50 (KRas^G12D): < 2 nM
- IC50 (KRas^G12S): < 2 nM
- IC50 [3]: 6 nM
- IC50 [4]: 7 nM

Structure (SMILES): CCc1c(F)ccc2cc(O)cc(-c3ncc4c(N5CC6CCC(C5)S6)nc(OC[C@@]56CCCN5C[C@H](F)C6)nc4c3F)c12 [Example 922, 4-(4-(8-thia-3-azabicyclo[3.2.1]octan-3-yl)-8-fluoro-2-(((2R,7aS)-2-fluorotetrahydro-1H-pyrrolizin-7a(5H)-yl)methoxy)pyrido[4,3-d]pyrimidin-7-yl)-5-ethyl-6-fluoronaphthalen-2-ol]
- IC50 (KRas^WT): 21 nM
- IC50 (KRas^G12C): 18 nM
- IC50 [1]: 1380 nM
- IC50 (KRas^G12V): 13 nM
- IC50 (KRas^G12D): 74 nM
- IC50 (KRas^G12S): 9 nM
- IC50 [3]: 576 nM

Structure (SMILES): C#Cc1c(F)ccc2cc(O)cc(-c3ncc4c(N5CCCC6(CCO6)C5)nc(OC[C@@]56CCCN5C[C@H](F)C6)nc4c3F)c12 (stereo partly drawn) [Example 935, 5-ethynyl-6-fluoro-4-(8-fluoro-2-(((2R,7aS)-2-fluorotetrahydro-1H-pyrrolizin-7a(5H)-yl)methoxy)-4-(1-oxa-6-azaspiro[3.5]nonan-6-yl)pyrido[4,3-d]pyrimidin-7-yl)naphthalen-2-ol]
- IC50 (KRas^WT): 7 nM
- IC50 (KRas^G12C): 7 nM
- IC50 [1]: 70 nM
- IC50 (KRas^G12V): 4 nM
- IC50 (KRas^G12D): 4 nM
- IC50 (KRas^G12S): 5 nM
- IC50 [3]: 73 nM

Structure (SMILES): CCc1c(F)ccc2cc(O)cc(-c3nc4c5c(nc(OC[C@@]67CCCN6C[C@H](F)C7)nc5c3F)NCCO4)c12 [Example 803, 5-ethyl-6-fluoro-4-(4-fluoro-2-(((2R,7aS)-2-fluorotetrahydro-1H-pyrrolizin-7a(5H)-yl)methoxy)-9,10-dihydro-8H-7-oxa-1,3,6,10-tetraazacyclohepta[de]naphthalen-5-yl)naphthalen-2-ol]
- IC50 (KRas^WT): 20 nM
- IC50 (KRas^G12C): 11 nM
- IC50 (KRas^G12V): 9 nM
- IC50 (KRas^G12D): 14 nM
- IC50 (KRas^G12S): 14 nM

Structure (SMILES): CCc1c(F)ccc2cc(O)cc(-c3ncc4c(N5CC[C@H]6C(=O)O[C@H]6C5)nc(OC[C@@]56CCCN5C[C@H](F)C6)nc4c3F)c12 [Example 802, 3-(7-(8-ethyl-7-fluoro-3-hydroxynaphthalen-1-yl)-8-fluoro-2-(((2R,7aS)-2-fluorotetrahydro-1H-pyrrolizin-7a(5H)-yl)methoxy)pyrido[4,3-d]pyrimidin-4-yl)-8-oxa-3-azabicyclo[4.2.0]octan-7-one]
- IC50 [5]: > 10000 nM
- IC50 (KRas^G12C): 2 nM
- IC50 [6]: > 10000 nM
- IC50 [7]: > 10000 nM
- IC50 [1]: > 10000 nM
- IC50 (KRas^G12R): 35 nM
- IC50 [2]: 32 nM
- IC50 (KRas^G12V): 116 nM
- IC50 (KRas^G12D): 189 nM
- IC50 (KRas^G12S): 2 nM
- IC50 [8]: > 10000 nM
- IC50 [3]: > 10000 nM
- IC50 [4]: 12 nM

Structure (SMILES): CCc1c(F)ccc2cc(O)cc(-c3ncc4c(N5CCC[C@@](C)(O)C5)nc(OC[C@]56CCCN5[C@H](COC)CC6)nc4c3F)c12 [Example 885, (R)-1-(7-(8-ethyl-7-fluoro-3-hydroxynaphthalen-1-yl)-8-fluoro-2-(((3S,7aR)-3-(methoxymethyl)tetrahydro-1H-pyrrolizin-7a(5H)-yl)methoxy)pyrido[4,3-d]pyrimidin-4-yl)-3-methylpiperidin-3-ol]
- IC50 [5]: 5 nM
- IC50 [6]: 1320 nM
- IC50 [7]: 16 nM
- IC50 [1]: 14 nM
- IC50 (KRas^G12R): < 2 nM
- IC50 [2]: 7 nM
- IC50 (KRas^G12V): < 2 nM
- IC50 (KRas^G12D): < 2 nM
- IC50 [8]: 8 nM
- IC50 [3]: 39 nM
- IC50 [4]: 30 nM

Structure (SMILES): CCc1c(F)ccc2cc(O)cc(-c3ncc4c(N5CCC[C@@](C)(O)C5)nc(OCC5(CN(C)C)C(C)C5C)nc4c3F)c12 (stereo partly drawn) [Example 818, (3R)-1-(2-((1-((dimethylamino)methyl)-2,3-dimethylcyclopropyl)methoxy)-7-(8-ethyl-7-fluoro-3-hydroxynaphthalen-1-yl)-8-fluoropyrido[4,3-d]pyrimidin-4-yl)-3-methylpiperidin-3-ol]
- IC50 [5]: 61 nM
- IC50 [6]: > 10000 nM
- IC50 [7]: 345 nM
- IC50 [1]: 135 nM
- IC50 (KRas^G12R): 8 nM
- IC50 [2]: 121 nM
- IC50 (KRas^G12V): 3 nM
- IC50 (KRas^G12D): 3 nM
- IC50 [8]: 167 nM
- IC50 [3]: 347 nM
- IC50 [4]: 212 nM

Structure (SMILES): CCc1c(F)ccc2cc(O)cc(-c3ncc4c(N5CCC[C@@](C)(O)C5)nc(OC[C@]56CCCN5[C@H](CF)CC6)nc4c3F)c12 [Example 879, (R)-1-(7-(8-ethyl-7-fluoro-3-hydroxynaphthalen-1-yl)-8-fluoro-2-(((3S,7aR)-3-(fluoromethyl)tetrahydro-1H-pyrrolizin-7a(5H)-yl)methoxy)pyrido[4,3-d]pyrimidin-4-yl)-3-methylpiperidin-3-ol]
- IC50 [5]: 1 nM
- IC50 [6]: 889 nM
- IC50 [7]: 65 nM
- IC50 [1]: 12 nM
- IC50 (KRas^G12R): 3 nM
- IC50 [2]: 14 nM
- IC50 (KRas^G12V): < 2 nM
- IC50 (KRas^G12D): 2 nM
- IC50 [8]: 25 nM
- IC50 [3]: 35 nM
- IC50 [4]: 30 nM

Structure (SMILES): CCc1c(F)ccc2cc3[nH]ncc3c(-c3ncc4c(N5C[C@@H]6C[C@H](C5)[C@H](O)C6)nc(OC[C@@]56CCCN5C[C@H](F)C6)nc4c3F)c12 [Example 825, (1R,5R,6R)-3-(7-(5-ethyl-6-fluoro-1H-benzo[f]indazol-4-yl)-8-fluoro-2-(((2R,7aS)-2-fluorotetrahydro-1H-pyrrolizin-7a(5H)-yl)methoxy)pyrido[4,3-d]pyrimidin-4-yl)-3-azabicyclo[3.2.1]octan-6-ol]
- IC50 [5]: 36 nM
- IC50 [6]: 5920 nM
- IC50 [7]: 369 nM
- IC50 [1]: 180 nM
- IC50 (KRas^G12R): 3 nM
- IC50 [2]: 50 nM
- IC50 (KRas^G12V): < 2 nM
- IC50 (KRas^G12D): 6 nM
- IC50 [8]: 98 nM
- IC50 [3]: 56 nM
- IC50 [4]: 83 nM

Structure (SMILES): CCc1c(F)ccc2cc(O)cc(-c3ncc4c(N5CCCC6(CNC(=O)N6)C5)nc(OC[C@]56CCCN5[C@H](COC(=O)N(C)C)CC6)nc4c3F)c12 (stereo partly drawn) [Example 711, ((3S,7aR)-7a-(((7-(8-ethyl-7-fluoro-3-hydroxynaphthalen-1-yl)-8-fluoro-4-(2-oxo-1,3,7-triazaspiro[4.5]decan-7-yl)pyrido[4,3-d]pyrimidin-2-yl)oxy)methyl)hexahydro-1H-pyrrolizin-3-yl)methyl dimethylcarbamate]
- IC50 [5]: 21 nM
- IC50 [6]: 6220 nM
- IC50 [7]: 247 nM
- IC50 [1]: 121 nM
- IC50 (KRas^G12R): < 2 nM
- inhibition at 0.1 µM ([2]; NCI-H358, 3 h, single point, 100 nM compound, 3 hrs): 78%
- IC50 (KRas^G12V): < 2 nM
- IC50 (KRas^G12D): < 2 nM
- IC50 [8]: 109 nM
- IC50 [3]: 196 nM
- inhibition at 0.1 µM ([4]; A549, 3 h, single point, 100 nM compound, 3 hrs): 43%

— patent US20260015350A1, “AZAQUINAZOLINE PAN-KRAS INHIBITORS” (Mirati Therapeutics, Inc., priority 2022, published 2026)
